ChEMBL document CHEMBL1147280, “Isolation Of A Novel Cytotoxic Polyacetylene From A Traditional Anthelmintic Medicinal Plant, Minquartia guianensis” (J Nat Prod, 1989)
≈ marks a conversion by molar mass, not a printed value.

Tests used:
P388 = assay: Cytotoxicity against mouse P388 cells; format: functional; conditions: read-out: ED50 (the source's name)
[1] = Toxicity in brine shrimp larvae; format: organism-based; conditions: artemia, in vivo

SMILES: CC(O)C#CC#CC#CC#CCCCCCCCC(=O)O (single isomer, unassigned; (-))
- EC50 (P388): 0.53 µg/mL (≈ 1.86 µM)
- LC50 [1]: 5.06 µg/mL (≈ 17.8 µM)
